We go through two compounds from ChEMBL document CHEMBL1157369, “Inhibition of type III secretion in Salmonella enterica serovar Typhimurium by small-molecule inhibitors” (Antimicrob Agents Chemother, 2007).

Each structure is given as a SMILES string. The source made the active and inactive calls. The calls are words filed in the database; no cut-off is given here.

In series [1] the test system is Salmonella typhimurium. Kind of series: Suppression of 1.5 hrs 100 uM pretreated Salmonella enterica serovar Typhimurium 4/74 infection-induced intestinal secretory response in Friesian bull intestinal ligated loop model. Type of series: functional, organism-based. The settings on record: Salmonella enterica subsp. enterica serovar Typhimurium.
The next series concerns HeLa. Kind of series: Toxicity against human HeLa cells at 0.1 to 10 uM after 3 hrs. Type of series: cell-based.
Series [2] deals with Salmonella typhimurium. Nature of the series: Reduction of Salmonella enterica serovar Typhimurium 4/74 invasion of human HeLa cells preincubated at 100 uM for 1 hr relative to control. The class given is functional, Salmonella enterica subsp. enterica serovar Typhimurium. On the set-up: scale not given: the % may be the effect or the level left.
Series [3] deals with Salmonella typhimurium. Kind of series: Effect on viability of Salmonella enterica serovar Typhimurium 4/74 at 100 uM after 4 hrs. The settings on record: Salmonella enterica subsp. enterica serovar Typhimurium. The class given is functional, organism-based.
Series [4] has as its system Salmonella enterica subsp. enterica serovar Typhimurium. Nature of the series: Inhibition of T3SS-1-mediated secretion of SipA protein in Salmonella enterica serovar Typhimurium 4/74 after 4 hrs by SDS-PAGE.
Series [5] has the same test system. Kind of series: Inhibition of T3SS-1-mediated secretion of SipC protein in Salmonella enterica serovar Typhimurium 4/74 after 4 hrs by SDS-PAGE.
For series [6] the test system is unchanged. Nature of the series: Inhibition of T3SS-1-mediated secretion of SopE protein in Salmonella enterica serovar Typhimurium 4/74 at 100 uM after 4 hrs by SDS-PAGE.
The test system of series [7] is Salmonella typhimurium. Nature of the series: Suppression of Salmonella enterica serovar Typhimurium 4/74 infection-induced intestinal secretory response in Friesian bull intestinal ligated loop model at 100 uM coadministered with bacterial challenge. Type of series: functional, organism-based. The settings on record: Salmonella enterica subsp. enterica serovar Typhimurium.

For series [8], the system named is Salmonella enterica subsp. enterica serovar Typhimurium. Kind of series: Inhibition of T3SS-1-mediated secretion of SipA protein in Salmonella enterica serovar Typhimurium 4/74 at 100 uM after 4 hrs by SDS-PAGE.
Series [9] deals with Salmonella typhimurium. Kind of series: Suppression of 1.5 hrs 100 uM pretreated Salmonella enterica serovar Typhimurium 4/74 infection-induced inflammatory response in Friesian bull intestinal ligated loop model assessed as polymorphonuclear leucocyte influx. The class given is functional, organism-based. The settings on record: Salmonella enterica subsp. enterica serovar Typhimurium.

Series [10] has as its system Salmonella enterica subsp. enterica serovar Typhimurium. Nature of the series: Inhibition of T3SS-1 associated virulence phenotype in 1.5 hrs 100 uM pretreated Salmonella enterica serovar Typhimurium 4/74 assessed as reduction of contact dependent hemolysis of sheep erythrocytes relative to wild-type.
Series [11] shares this test system. Kind of series: Inhibition of T3SS-1-mediated secretion of SipC protein in Salmonella enterica serovar Typhimurium 4/74 at 100 uM after 4 hrs by SDS-PAGE.
In series [12] the test system is Salmonella typhimurium. Kind of series: Suppression of Salmonella enterica serovar Typhimurium 4/74 infection-induced inflammatory response in Friesian bull intestinal ligated loop model assessed as polymorphonuclear leucocyte influx at 100 uM coadministered with bacterial challenge. The class given is functional, organism-based. The settings on record: Salmonella enterica subsp. enterica serovar Typhimurium.

Series [13] relates to Salmonella enterica subsp. enterica serovar Typhimurium. Nature of the series: Inhibition of T3SS-1-mediated secretion of SopE protein in Salmonella enterica serovar Typhimurium 4/74 after 4 hrs by SDS-PAGE.

Take `O=C(N/N=C/c1cc(Cl)cc(Cl)c1O)c1ccccc1`: the outcome (in the series on Salmonella typhimurium [1]; in [6]; in series [8]; in the series with Salmonella typhimurium [9]; in series [10]; in series [11]) was Active. The Activity result in the series on HeLa was “Non-toxic”; in the series with Salmonella typhimurium [2] it was 60%; in series [4], “Dose-dependent effect”; in series [13], “Dose-dependent effect”. Also, the outcome in the series with Salmonella typhimurium [3], in the series with Salmonella typhimurium [7] and in the series on Salmonella typhimurium [12] was inactive. The “%max” value in series [5] is “Dose-dependent effect”.

With `O=C(N/N=C/c1cc(Br)cc(Br)c1O)c1ccc([N+](=O)[O-])cc1`, the outcome (with Salmonella typhimurium [1]; in [6]; in series [8]; in the series on Salmonella typhimurium [9]; in series [10]; in [11]) was Active. In addition, the Activity entry in the series with HeLa was “Non-toxic”; in the series on Salmonella typhimurium [2], 47%; in series [4], “Dose-dependent effect”; in [13] it was “Dose-dependent effect”. Further, the result in the series on Salmonella typhimurium [3], with Salmonella typhimurium [7] and with Salmonella typhimurium [12] was inactive. Further, in series [5], the “%max” value is “Dose-dependent effect”.
